# Values quoted from earlier work, collected in patent US11078226B2, “Fluorogenic glycosidase substrate and associated detection method” (ECOLE NORMALE SUPERIEURE DE LYON, priority 2016, dated 2021).
# Conditions: cited from earlier work
structure (smiles),measurement,value
"O=c1[nH]c(-c2cc(Cl)ccc2O)nc2ccc(Cl)cc12 [dichloro-HPQ, 6-chloro-2-(5-chloro-2-hydroxyphenyl)-4(3H)-quinazolinone]",solubility in aqueous/physiological media,completely insoluble
